Values after ≈ are worked out from the molar mass of the structure shown. Like-named read-outs stand apart in the source and are kept apart here.

Holding throughout (format): cell-based
One assay has as its system Escherichia coli. An outline of the steps: (§1)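 MIC (μg/mL) by susceptibility testing against up to nine strains per species, including strains with elevated Polymyxin MICs and resistant isolates.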
A further assay deals with Pseudomonas aeruginosa. An outline of the steps: as §1
The next assay concerns Acinetobacter baumannii. An outline of the steps:
as §1

Another assay concerns Klebsiella pneumoniae. An outline of the steps: as §1

On to `CC(C)CCC(CCN)C(=O)N[C@H](C(=O)N[C@@H](CN)C(=O)N[C@H]1CCNC(=O)[C@H]([C@@H](C)O)NC(=O)[C@H](CCN)NC(=O)[C@H](CCN)NC(=O)[C@H](CC(C)C)NC(=O)[C@@H](CC2CCCCC2)NC(=O)[C@H](CCN)NC1=O)[C@@H](C)O` (single isomer, unassigned; isomer 2) [Example 80, 2-(2-aminoethyl)-5-methylhexanoyl L-Thr-L-Dap-polymyxin [D-cyclohexylalanine-6]heptapeptide. isomer 2], for which, in the assay on Escherichia coli, the “MIC E. coli 058” value amounted to 2 µg/mL (≈ 1.8 µM), the “MIC E. coli 061” value amounted to 8 µg/mL (≈ 7.2 µM), the “MIC E. coli ATCC 25922” value stood at 0.125 µg/mL (≈ 0.113 µM) and the “MIC E. coli NCTC 9001” value is 0.03 µg/mL (≈ 0.027 µM). Also, in the assay with Pseudomonas aeruginosa, the “MIC P. aeruginosa 068” value amounted to 2 µg/mL (≈ 1.8 µM), the “MIC P. aeruginosa 070” value is 2 µg/mL (≈ 1.8 µM), the “MIC P. aeruginosa ATCC 27853” value was found to be 0.25 µg/mL (≈ 0.225 µM) and the “MIC P. aeruginosa CCUG 59347” value was 0.5 µg/mL (≈ 0.45 µM). Besides, in the assay with Acinetobacter baumannii, the “MIC A. baumanii 053” value worked out at 64 µg/mL (≈ 57.6 µM), the “MIC A. baumanii 056” value was found to be 32 µg/mL (≈ 28.8 µM), the “MIC A. baumanii ATCC BAA-747” value was determined as 0.125 µg/mL (≈ 0.113 µM) and the “MIC A. baumanii NCTC 13424” value is 0.125 µg/mL (≈ 0.113 µM). Also, in the assay with Klebsiella pneumoniae, the “MIC K. pneumoniae 063” value is 8 µg/mL (≈ 7.2 µM), the “MIC K. pneumoniae 065” value is 2 µg/mL (≈ 1.8 µM), the “MIC K. pneumoniae ATCC 4352” value is 0.06 µg/mL (≈ 0.054 µM) and the “MIC K. pneumoniae ATCC 13882” value stood at 0.25 µg/mL (≈ 0.225 µM).
As for `CC(C)C[C@@H]1NC(=O)[C@@H](CC2CCCCC2)NC(=O)[C@H](CCN)NC(=O)[C@@H](NC(=O)[C@H](CCN)NC(=O)[C@@H](NC(=O)CC(CN)C2CCCCC2)[C@@H](C)O)CCNC(=O)[C@H]([C@@H](C)O)NC(=O)[C@H](CCN)NC(=O)[C@H](CCN)NC1=O` (single isomer, unassigned; isomer 2) [Example 87, 4-amino-3-cyclohexylbutanoyl polymyxin [D-cyclohexylalanine-6]nonapeptide. Isomer 2], in the assay on Escherichia coli (strain 058), the “MIC E. coli 058” value was 4 µg/mL (≈ 3.52 µM). Also, the “MIC E. coli 061” value in the assay with Escherichia coli (strain 061) is 16 µg/mL (≈ 14.1 µM). Further, in the assay on Escherichia coli (strain ATCC 25922), the “MIC E. coli ATCC 25922” value is 0.125 µg/mL (≈ 0.11 µM). For the same compound, the “MIC E. coli NCTC 9001” value in the assay on Escherichia coli (strain NCTC 9001) was 0.125 µg/mL (≈ 0.11 µM). The “MIC P. aeruginosa 068” value in the assay with Pseudomonas aeruginosa (strain 068) stood at 2 µg/mL (≈ 1.76 µM). The “MIC P. aeruginosa 070” value against Pseudomonas aeruginosa (strain 070) was determined as 8 µg/mL (≈ 7.04 µM). In the assay on Pseudomonas aeruginosa (strain ATCC 27853), the “MIC P. aeruginosa ATCC 27853” value worked out at 0.25 µg/mL (≈ 0.22 µM). In the assay on Pseudomonas aeruginosa (strain CCUG 59347), the “MIC P. aeruginosa CCUG 59347” value is 0.5 µg/mL (≈ 0.44 µM). For the same compound, in the assay with Acinetobacter baumannii (strain 053), the “MIC A. baumanii 053” value came to 64 µg/mL (≈ 56.3 µM). Besides, in the assay with Acinetobacter baumannii (strain 056), the “MIC A. baumanii 056” value was 64 µg/mL (≈ 56.3 µM). Further, the “MIC A. baumanii ATCC BAA-747” value in the assay on Acinetobacter baumannii (strain ATCC BAA-747) was determined as 0.25 µg/mL (≈ 0.22 µM). In the assay on Acinetobacter baumannii (strain NCTC 13424), the “MIC A. baumanii NCTC 13424” value stood at 0.125 µg/mL (≈ 0.11 µM). For the same compound, the “MIC K. pneumoniae 063” value against Klebsiella pneumoniae (strain 063) worked out at 16 µg/mL (≈ 14.1 µM). Moreover, the “MIC K. pneumoniae 065” value with Klebsiella pneumoniae (strain 065) turned out to be 0.5 µg/mL (≈ 0.44 µM). In the assay on Klebsiella pneumoniae (strain ATCC 13882), the “MIC K. pneumoniae ATCC 13882” value is 0.25 µg/mL (≈ 0.22 µM).
Consider `CC(C)CCC(CCN)C(=O)N[C@H](C(=O)N[C@@H](CCN)C(=O)N[C@H]1CCNC(=O)[C@H]([C@@H](C)O)NC(=O)[C@H](CCN)NC(=O)[C@H](CCN)NC(=O)[C@H](CC(C)C)NC(=O)[C@@H](CC2CCCCC2)NC(=O)[C@H](CCN)NC1=O)[C@@H](C)O` (single isomer, unassigned; isomer 2) [Example 89, 2-(2-aminoethyl)-5-methylhexanoyl polymyxin [D-cyclohexylalanine-6]nonapeptide. Isomer 2], for which, in the assay with Escherichia coli, the “MIC E. coli 058” value came out at 16 µg/mL (≈ 14.2 µM) and the “MIC E. coli ATCC 25922” value came out at 0.125 µg/mL (≈ 0.111 µM). Besides, in the assay on Pseudomonas aeruginosa, the “MIC P. aeruginosa ATCC 27853” value came out at 0.5 µg/mL (≈ 0.445 µM) and the “MIC P. aeruginosa CCUG 59347” value turned out to be 1 µg/mL (≈ 0.889 µM). In the assay with Acinetobacter baumannii, the “MIC A. baumanii ATCC BAA-747” value was found to be 0.5 µg/mL (≈ 0.445 µM) and the “MIC A. baumanii NCTC 13424” value stood at 0.25 µg/mL (≈ 0.222 µM). In addition, in the assay with Klebsiella pneumoniae, the “MIC K. pneumoniae 065” value is 32 µg/mL (≈ 28.5 µM) and the “MIC K. pneumoniae ATCC 13882” value is 0.25 µg/mL (≈ 0.222 µM).

The record behind these values is patent US12146004B2, “Polymyxin compounds and uses thereof” (priority 2014, dated 2024).
